Legend:
Heme-containing sGC = target: T1, Heme-containing sGC (Rattus norvegicus, UniProt P20595); test: Stimulation of recombinant soluble guanylate cyclase (sGC) in vitro, heme-containing enzyme; type: biochemical; conditions: for Stimulation (n-fold), heme-containing sGC, DEA/NO alone: Ex. 6 0 μM
T1 construct: made in house; host or cells: Sf9 insect cells (baculovirus)
T1 sequence (P20595 1-619): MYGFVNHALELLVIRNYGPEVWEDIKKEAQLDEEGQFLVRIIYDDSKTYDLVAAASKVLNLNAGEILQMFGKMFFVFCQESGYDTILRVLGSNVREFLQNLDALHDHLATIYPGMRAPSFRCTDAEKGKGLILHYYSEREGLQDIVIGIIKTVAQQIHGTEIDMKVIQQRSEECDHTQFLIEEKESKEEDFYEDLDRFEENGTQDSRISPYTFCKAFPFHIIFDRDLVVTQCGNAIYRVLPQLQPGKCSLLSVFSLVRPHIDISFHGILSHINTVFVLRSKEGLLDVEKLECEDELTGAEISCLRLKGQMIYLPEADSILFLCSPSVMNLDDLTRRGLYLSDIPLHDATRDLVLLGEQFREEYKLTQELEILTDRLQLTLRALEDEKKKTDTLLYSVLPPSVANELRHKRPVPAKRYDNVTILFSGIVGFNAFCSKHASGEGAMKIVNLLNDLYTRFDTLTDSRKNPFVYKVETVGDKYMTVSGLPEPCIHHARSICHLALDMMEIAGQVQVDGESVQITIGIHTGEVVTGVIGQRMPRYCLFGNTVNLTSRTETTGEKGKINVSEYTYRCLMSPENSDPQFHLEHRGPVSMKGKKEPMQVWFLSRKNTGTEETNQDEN
T1 sequence (P19686 1-690 partner): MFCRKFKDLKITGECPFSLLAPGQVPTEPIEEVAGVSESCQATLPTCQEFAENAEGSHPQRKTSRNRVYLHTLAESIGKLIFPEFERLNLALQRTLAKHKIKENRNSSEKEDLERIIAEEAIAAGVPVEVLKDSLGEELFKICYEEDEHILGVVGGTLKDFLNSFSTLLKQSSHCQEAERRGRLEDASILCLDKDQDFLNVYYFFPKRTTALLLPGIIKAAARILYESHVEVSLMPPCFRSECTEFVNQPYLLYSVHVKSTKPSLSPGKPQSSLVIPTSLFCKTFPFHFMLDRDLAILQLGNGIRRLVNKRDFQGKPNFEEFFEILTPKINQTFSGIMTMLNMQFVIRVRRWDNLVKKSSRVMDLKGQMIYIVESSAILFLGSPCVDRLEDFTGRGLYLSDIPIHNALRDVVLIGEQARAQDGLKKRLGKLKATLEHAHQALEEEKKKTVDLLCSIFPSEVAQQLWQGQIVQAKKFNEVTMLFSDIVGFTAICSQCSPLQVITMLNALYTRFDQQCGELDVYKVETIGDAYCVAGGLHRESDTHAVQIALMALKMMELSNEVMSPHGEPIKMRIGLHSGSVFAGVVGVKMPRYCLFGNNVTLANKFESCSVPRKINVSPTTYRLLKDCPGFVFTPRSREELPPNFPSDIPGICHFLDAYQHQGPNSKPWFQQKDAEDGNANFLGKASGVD
Experimental: The investigations of the stimulation of recombinant soluble guanylate cyclase (sGC) […] heme-dependent sGC inhibitor 1H-1,2,4-oxadiazole-(4,3a)-quinoxalin-1-one (ODQ) were carried out according to the method described in detail in the following literature reference: M. Hoenicka, E. M. Becker, H. Apeler, T. Sirichoke, H. Schroeder, R. Gerzer and J.-P. Stasch: Purified soluble guanylyl cyclase expressed in a baculovirus/Sf9 system: stimulation by YC-1, nitric oxide, and carbon oxide. J. Mol. Med. 77 (1999): 14-23.
(§1) Activation of sGC by a test substance is stated as n-fold stimulation of basal activity.

Heme-free sGC = target: T2, Heme-free sGC (Rattus norvegicus, UniProt P20595); test: Stimulation of recombinant soluble guanylate cyclase (sGC) in vitro, heme-free enzyme; type: biochemical
T2 construct: made in house; host or cells: Sf9 insect cells (baculovirus)
T2 sequence (P20595 1-619): T1 sequence (P20595 1-619)
T2 sequence (P19686 1-690 partner): T1 sequence (P19686 1-690 partner)
Experimental: The investigations of the stimulation of recombinant soluble guanylate cyclase (sGC) and the compounds according to the invention with and without sodium nitroprusside and with and without the heme-dependent sGC inhibitor 1H-1,2,4-oxadiazole-(4,3a)-quinoxalin-1-one (ODQ) were carried out according to the method described in detail in the following literature reference: M. Hoenicka, E. M. Becker, H. Apeler, T. Sirichoke, H. Schroeder, R. Gerzer and J.-P. Stasch: Purified soluble guanylyl cyclase expressed in a baculovirus/Sf9 system: stimulation by YC-1, nitric oxide, and carbon oxide. J. Mol. Med. 77 (1999): 14-23.
The heme-free guanylate cyclase was obtained by adding Tween 20 to the sample buffer (final concentration 0.5%).
as §1

arteria saphena rings = test: Vasorelaxant effect in vitro (phenylephrine-contracted arteria saphena rings); type: cell-based, Rabbits; conditions: Oryctolagus cuniculus; rabbit arteria saphena rings, phenylephrine contraction
Experimental: Rabbits are anesthetized or killed by intravenous injection of thiopental sodium (about 50 mg/kg) and exsanguinated. The arteria saphena is removed and divided into rings 3 mm wide. The individual rings are in each case mounted on a pair of hooks of triangular shape, open at the ends and made of special wire (Remanium®) having a diameter of 0.3 mm. Under pretension, each ring is introduced into a 5 ml organ bath containing carbogen-gassed Krebs-Henseleit solution at 37° C. with the following composition (mM): NaCl: 119; KCl: 4.8; CaCl2×2H2O: 1; MgSO4×7H2O: 1.4; KH2PO4: 1.2; NaHCO3: 25; glucose: 10; bovine serum albumin: 0.001%. The force of contraction is detected with Statham UC2 cells, amplified and digitized via A/D converters (DAS-1802 HC, Keithley Instruments, Munich) and recorded in parallel on chart recorders. Contractions are generated by adding phenylephrine.
After several (generally 4) control cycles, the substance to be investigated is added in each further run in increasing dosage, and the height of the contraction reached under the influence of the test substance is compared with the height of the contraction reached in the last preceding run. The concentration necessary to reduce the height of the control value by 50% (IC50) is calculated from this. The standard application volume is 5 μl. The DMSO content in the bath solution corresponds to 0. 1%.

[1] = system: porcine serum-induced rat liver fibrosis; test: Antifibrotic action in vivo, porcine serum-induced rat liver fibrosis; set-up: species or system Female Sprague Dawley rats; conditions: seven weeks
From the text: The antifibrotic action of the substances was investigated using the model of the porcine serum-induced rat liver fibrosis. Treatment with heterologous serum, for example porcine serum in rats, is a method frequently used in the literature for inducing fibrosis of the liver with subsequent cirrhosis which, in contrast to other models, causes only minimal damage and inflammation of the parenchyma cells of the liver (Bhunchet, E. and Wake, K. (1992): Role of mesenchymal cell populations in porcine serum-induced rat liver fibrosis. Hepatology 16: 1452-1473). […] After seven weeks of treatment, the animals were killed and the livers were removed in order to quantify the collagen content. […]
Fast Green was used as counterstain to enhance contrasts. In each section, the extent of liver fibrosis was determined as a percentage of the area stained by Pikrosirius Red of the total area measured. […] 64 fields of a standardized grid of 31 mm^2 were measured using a final amplification of 100. […]
To determine OH-proline according to Prockop and Udenfried (Prockop, D. J. and Udenfried, S. A. (1960): A specific method for the analysis of hydroxyproline in tissues and urine. Anal. Biochem. 1: 228-239), in each case 50-100 mg of liver tissue were dried and boiled with 6N HCl for about 17 hours. […] After 3 hours of incubation at 35° C., absorption at 573 nm was measured. […]

Structure (SMILES): CCN(CC)[N+]([O-])=NO [DEA/NO, 2-(N,N-diethylamino)diazenolate 2-oxide, reference compound]
- Stimulation (n-fold), heme-containing sGC, DEA/NO alone (Heme-containing sGC; DEA/NO 0.001 μM): 5 n-fold
- Stimulation (n-fold), heme-containing sGC, DEA/NO alone (Heme-containing sGC; DEA/NO 0.01 μM): 30 n-fold
- Stimulation (n-fold), heme-containing sGC, DEA/NO alone (Heme-containing sGC; DEA/NO 0.1 μM): 124 n-fold

Structure (SMILES): O=C(O)CCCCN(CCc1ccccc1OCc1ccc(-c2ccc(C(F)(F)F)cc2)cc1Cl)Cc1ccc(C(=O)O)cc1 [Example 6]
- Stimulation (n-fold), heme-free sGC, basal (Heme-free sGC; Ex. 6 0.001 μM): 10 n-fold
- Stimulation (n-fold), heme-free sGC, + ODQ (10 μM) (Heme-free sGC; Ex. 6 0.001 μM + ODQ 10 μM): 25 n-fold
- Stimulation (n-fold), heme-free sGC, basal (Heme-free sGC; Ex. 6 0.01 μM): 55 n-fold
- Stimulation (n-fold), heme-free sGC, + ODQ (10 μM) (Heme-free sGC; Ex. 6 0.01 μM + ODQ 10 μM): 61 n-fold
- Stimulation (n-fold), heme-free sGC, basal (Heme-free sGC; Ex. 6 0.1 μM): 81 n-fold
- Stimulation (n-fold), heme-free sGC, + ODQ (10 μM) (Heme-free sGC; Ex. 6 0.1 μM + ODQ 10 μM): 79 n-fold
- Stimulation (n-fold), heme-free sGC, basal (Heme-free sGC; Ex. 6 1.0 μM): 83 n-fold
- Stimulation (n-fold), heme-free sGC, + ODQ (10 μM) (Heme-free sGC; Ex. 6 1.0 μM + ODQ 10 μM): 83 n-fold
- Stimulation (n-fold), heme-free sGC, basal (Heme-free sGC; Ex. 6 10 μM): 84 n-fold
- Stimulation (n-fold), heme-free sGC, + ODQ (10 μM) (Heme-free sGC; Ex. 6 10 μM + ODQ 10 μM): 83 n-fold
- IC50 (arteria saphena rings): 0.17 nM
- Stimulation (n-fold), heme-containing sGC, basal (Heme-containing sGC; Ex. 6 0.001 μM): 2 n-fold
- Stimulation (n-fold), heme-containing sGC, + DEA/NO (0.001 μM) (Heme-containing sGC; Ex. 6 0.001 μM + DEA/NO 0.001 μM): 6 n-fold
- Stimulation (n-fold), heme-containing sGC, + DEA/NO (0.01 μM) (Heme-containing sGC; Ex. 6 0.001 μM + DEA/NO 0.01 μM): 32 n-fold
- Stimulation (n-fold), heme-containing sGC, + DEA/NO (0.1 μM) (Heme-containing sGC; Ex. 6 0.001 μM + DEA/NO 0.1 μM): 127 n-fold
- Stimulation (n-fold), heme-containing sGC, + ODQ (10 μM) (Heme-containing sGC; Ex. 6 0.001 μM + ODQ 10 μM): 35 n-fold
- Stimulation (n-fold), heme-containing sGC, basal (Heme-containing sGC; Ex. 6 0.01 μM): 9 n-fold
- Stimulation (n-fold), heme-containing sGC, + DEA/NO (0.001 μM) (Heme-containing sGC; Ex. 6 0.01 μM + DEA/NO 0.001 μM): 13 n-fold
- Stimulation (n-fold), heme-containing sGC, + DEA/NO (0.01 μM) (Heme-containing sGC; Ex. 6 0.01 μM + DEA/NO 0.01 μM): 39 n-fold
- Stimulation (n-fold), heme-containing sGC, + DEA/NO (0.1 μM) (Heme-containing sGC; Ex. 6 0.01 μM + DEA/NO 0.1 μM): 134 n-fold
- Stimulation (n-fold), heme-containing sGC, + ODQ (10 μM) (Heme-containing sGC; Ex. 6 0.01 μM + ODQ 10 μM): 95 n-fold
- Stimulation (n-fold), heme-containing sGC, basal (Heme-containing sGC; Ex. 6 0.1 μM): 18 n-fold
- Stimulation (n-fold), heme-containing sGC, + DEA/NO (0.001 μM) (Heme-containing sGC; Ex. 6 0.1 μM + DEA/NO 0.001 μM): 25 n-fold
- Stimulation (n-fold), heme-containing sGC, + DEA/NO (0.01 μM) (Heme-containing sGC; Ex. 6 0.1 μM + DEA/NO 0.01 μM): 52 n-fold
- Stimulation (n-fold), heme-containing sGC, + DEA/NO (0.1 μM) (Heme-containing sGC; Ex. 6 0.1 μM + DEA/NO 0.1 μM): 157 n-fold
- Stimulation (n-fold), heme-containing sGC, + ODQ (10 μM) (Heme-containing sGC; Ex. 6 0.1 μM + ODQ 10 μM): 147 n-fold
- Stimulation (n-fold), heme-containing sGC, basal (Heme-containing sGC; Ex. 6 1.0 μM): 23 n-fold
- Stimulation (n-fold), heme-containing sGC, + DEA/NO (0.001 μM) (Heme-containing sGC; Ex. 6 1.0 μM + DEA/NO 0.001 μM): 30 n-fold
- Stimulation (n-fold), heme-containing sGC, + DEA/NO (0.01 μM) (Heme-containing sGC; Ex. 6 1.0 μM + DEA/NO 0.01 μM): 53 n-fold
- Stimulation (n-fold), heme-containing sGC, + DEA/NO (0.1 μM) (Heme-containing sGC; Ex. 6 1.0 μM + DEA/NO 0.1 μM): 151 n-fold
- Stimulation (n-fold), heme-containing sGC, + ODQ (10 μM) (Heme-containing sGC; Ex. 6 1.0 μM + ODQ 10 μM): 150 n-fold
- Stimulation (n-fold), heme-containing sGC, basal (Heme-containing sGC; Ex. 6 10 μM): 25 n-fold
- Stimulation (n-fold), heme-containing sGC, + DEA/NO (0.001 μM) (Heme-containing sGC; Ex. 6 10 μM + DEA/NO 0.001 μM): 30 n-fold
- Stimulation (n-fold), heme-containing sGC, + DEA/NO (0.01 μM) (Heme-containing sGC; Ex. 6 10 μM + DEA/NO 0.01 μM): 67 n-fold
- Stimulation (n-fold), heme-containing sGC, + DEA/NO (0.1 μM) (Heme-containing sGC; Ex. 6 10 μM + DEA/NO 0.1 μM): 174 n-fold
- Stimulation (n-fold), heme-containing sGC, + ODQ (10 μM) (Heme-containing sGC; Ex. 6 10 μM + ODQ 10 μM): 159 n-fold
- Reduction of collagen deposits in the liver (OH-proline, morphometric fibrosis measurement) ([1]; 0.03 mg/kg p.o. o.d.): about a half
- Reduction of collagen deposits in the liver (OH-proline, morphometric fibrosis measurement) ([1]; 0.1 mg/kg p.o. o.d.): about a half

Structure (SMILES): O=C(O)CCCCN(CCc1ccccc1OCc1ccc(C2=CCCCC2)cc1Cl)Cc1ccc(C(=O)O)cc1 [Example 9]
- IC50 (arteria saphena rings): 1.8 nM

Structure (SMILES): O=C(O)CCCCN(CCc1ccccc1OCc1ccc(C2CCCCC2)cc1Cl)Cc1ccc(C(=O)O)cc1 [Example 12]
- IC50 (arteria saphena rings): 2 nM

Structure (SMILES): CC(C)(C)c1ccc(-c2ccc(COc3ccccc3CCN(CCCCC(=O)O)Cc3ccc(C(=O)O)cc3)c(F)c2)cc1 [Example 2]
- IC50 (arteria saphena rings): 0.15 nM
